# Results: patent US9695171B2, “3,4-disubstituted-1 H-pyrrolo[2,3-b]pyridines and 4,5-disubstituted-7H-pyrrolo[2,3-c]pyridazines as LRRK2 inhibitors” (Pfizer Inc., priority 2013, dated 2017)
# Target: T1, GST-tagged truncated LRRK2 (Homo sapiens, UniProt Q5S007)
# T1 construct: GST-tagged truncated LRRK2 from Invitrogen (Cat # PV4874); GST; purchased Invitrogen PV4874
# Experiment: LRRK2 kinase assay (Lantha Screen)
# Assay type: biochemical
# Settings: 1 mM ATP (head); a = geometric mean of >=4 determinations, b = single determination; read-out: LRRK2 LANTHA EC50 at 1 mM ATP; Geometric mean of 2-3 determinations unless otherwise indicated
# Method: LRRK2 kinase activity was measured using Lantha Screen technology from Invitrogen. GST-tagged truncated LRRK2 from Invitrogen (Cat # PV4874) was incubated with a fluorescein-labeled peptide substrate based upon ezrin/radixin/moesin (ERM), also known as LRRKtide (Invitrogen cat # PR8976A), in the presence of a dose response of compound. Upon completion, the assay was stopped and detected with a terbium labeled anti-phospho-ERM antibody (Invitrogen, cat # PR8975A). […] The compound dose response was prepared by diluting compound to a top concentration of 3.16 mM in 100% DMSO and serial diluted by half-log in DMSO 11 times. Aliquots (3.5 μL) of the 100% DMSO dose response were mixed with 46.5 μL water then 1 μL of this mixture was added to the 3 μL substrate mix in the 384-well plate. The kinase reaction was started with 3 μL of a working solution of LRRK2 enzyme at a concentration of 4 μg/mL. […] The reaction was allowed to progress at room temperature for two hours and then stopped with the addition of 7 μL of detection buffer (20 mM Tris pH 7.6, 0.01% NP-40, 0.02% NaN3, 6 mM EDTA with 2 nM terbium labeled anti-phospho-ERM). After an incubation of 1 hour at room temperature, the plate was read on an Envision with an excitation wavelength of 340 nm and a reading emission at both 520 nm and 495 nm. The ratio of the 520 nm and 495 nm emission was used to analyze the data.
# T1 sequence (Q5S007 970-2527 limits assumed): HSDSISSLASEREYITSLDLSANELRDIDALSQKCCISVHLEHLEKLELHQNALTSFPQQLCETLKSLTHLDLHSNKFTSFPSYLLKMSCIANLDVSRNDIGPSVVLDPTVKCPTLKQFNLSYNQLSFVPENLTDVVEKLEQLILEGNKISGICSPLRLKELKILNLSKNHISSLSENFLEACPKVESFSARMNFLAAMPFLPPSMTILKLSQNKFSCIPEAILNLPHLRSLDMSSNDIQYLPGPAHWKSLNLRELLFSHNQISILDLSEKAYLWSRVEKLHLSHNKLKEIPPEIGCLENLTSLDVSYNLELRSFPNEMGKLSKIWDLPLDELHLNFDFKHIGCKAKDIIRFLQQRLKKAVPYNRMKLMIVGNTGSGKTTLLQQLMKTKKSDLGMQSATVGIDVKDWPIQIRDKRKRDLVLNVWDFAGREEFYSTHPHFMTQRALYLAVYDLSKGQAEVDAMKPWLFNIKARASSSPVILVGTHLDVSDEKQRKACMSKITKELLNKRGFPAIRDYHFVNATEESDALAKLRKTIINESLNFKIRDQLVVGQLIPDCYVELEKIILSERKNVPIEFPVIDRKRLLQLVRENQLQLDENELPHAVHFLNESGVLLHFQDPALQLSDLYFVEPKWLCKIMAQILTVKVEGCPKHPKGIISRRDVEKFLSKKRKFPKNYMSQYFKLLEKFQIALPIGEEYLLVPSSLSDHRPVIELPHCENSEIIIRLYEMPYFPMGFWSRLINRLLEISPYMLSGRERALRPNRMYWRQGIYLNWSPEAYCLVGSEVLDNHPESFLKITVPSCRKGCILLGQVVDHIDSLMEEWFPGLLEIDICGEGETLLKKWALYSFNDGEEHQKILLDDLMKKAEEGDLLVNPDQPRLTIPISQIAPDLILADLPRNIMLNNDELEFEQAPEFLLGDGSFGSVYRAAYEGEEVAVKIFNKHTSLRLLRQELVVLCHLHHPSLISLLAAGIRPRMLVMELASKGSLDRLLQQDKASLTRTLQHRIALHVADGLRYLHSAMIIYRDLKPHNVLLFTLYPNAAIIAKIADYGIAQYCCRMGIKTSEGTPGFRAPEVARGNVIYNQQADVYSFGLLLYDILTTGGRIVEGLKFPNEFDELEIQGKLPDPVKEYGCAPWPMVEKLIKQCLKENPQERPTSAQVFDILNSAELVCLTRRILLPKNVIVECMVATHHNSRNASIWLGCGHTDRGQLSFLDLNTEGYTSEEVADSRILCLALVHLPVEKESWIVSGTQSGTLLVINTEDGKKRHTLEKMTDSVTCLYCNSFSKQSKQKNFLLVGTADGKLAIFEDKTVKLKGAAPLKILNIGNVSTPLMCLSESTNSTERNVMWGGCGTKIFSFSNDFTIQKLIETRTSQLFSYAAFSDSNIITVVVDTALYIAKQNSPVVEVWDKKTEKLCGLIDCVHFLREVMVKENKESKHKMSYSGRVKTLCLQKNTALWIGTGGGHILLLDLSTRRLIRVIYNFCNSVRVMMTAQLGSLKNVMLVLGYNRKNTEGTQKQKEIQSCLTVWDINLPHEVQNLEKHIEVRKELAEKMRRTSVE
row,SMILES,EC50
1,"Cc1[nH]c2nccc(N3CCOCC3)c2c1-c1ccccc1 [Example 53, 2-methyl-4-(morpholin-4-yl)-3-phenyl-1H-pyrrolo[2,3-b]pyridine]",201 nM
2,"Cc1[nH]c2nccc(N3CCOCC3)c2c1-c1ccccc1F [Example 54, 3-(2-fluorophenyl)-2-methyl-4-(morpholin-4-yl)-1H-pyrrolo[2,3-b]pyridine]",91.6 nM
3,"Cc1[nH]c2nccc(N3CCOCC3)c2c1-c1cccc(F)c1 [Example 55, 3-(3-fluorophenyl)-2-methyl-4-(morpholin-4-yl)-1H-pyrrolo[2,3-b]pyridine]",101 nM
4,"C[C@H]1CN(c2ccnc3[nH]cc(-c4cnn(C)c4)c23)CCO1 [Example 58, 4-[(2S)-2-methylmorpholin-4-yl]-3-(1-methyl-1H-pyrazol-4-yl)-1H-pyrrolo[2,3-b]pyridine]",169 nM
5,"Cn1cc(-c2c[nH]c3nccc(N4C[C@H]5CC[C@@H](C4)O5)c23)cn1 [Example 61, 3-(1-methyl-1H-pyrazol-4-yl)-4-(8-oxa-3-azabicyclo[3.2.1]oct-3-yl)-1H-pyrrolo[2,3-b]pyridine]",221 nM
6,"Cn1cc(-c2c[nH]c3nccc(N4CCSCC4)c23)cn1 [Example 63, 3-(1-methyl-1H-pyrazol-4-yl)-4-(thiomorpholin-4-yl)-1H-pyrrolo[2,3-b]pyridine]",71.9 nM
7,"N#Cc1cccc(-c2c[nH]c3nccc(N4CCCC(O)C4)c23)c1 (stereo not drawn) [Example 66, 3-[4-(3-hydroxypiperidin-1-yl)-1H-pyrrolo[2,3-b]pyridin-3-yl]benzonitrile]",24.3 nM
8,"N#Cc1cccc(-c2c[nH]c3nccc(N4C[C@H]5C[C@@H](C4)O5)c23)c1 [Example 72, 3-[4-(6-oxa-3-azabicyclo[3.1.1]hept-3-yl)-1H-pyrrolo[2,3-b]pyridin-3-yl]benzonitrile]",68.3 nM
9,"N#Cc1cccc(-c2c[nH]c3nccc(N4C[C@@H](F)[C@H](F)C4)c23)c1 [Example 73, 3-{4-[(3R,4R)-3,4-difluoropyrrolidin-1-yl]-1H-pyrrolo[2,3-b]pyridin-3-yl}benzonitrile]",44.4 nM
10,"N#Cc1cccc(-c2c[nH]c3nccc(N4CC[C@@H](F)C4)c23)c1 [Example 75, 3-{4-[(3R)-3-fluoropyrrolidin-1-yl]-1H-pyrrolo[2,3-b]pyridin-3-yl}benzonitrile]",38.7 nM
11,"N#Cc1cccc(-c2c[nH]c3nccc(N4CCCC4)c23)c1 [Example 77, 3-[4-(pyrrolidin-1-yl)-1H-pyrrolo[2,3-b]pyridin-3-yl]benzonitrile]",14.1 nM
12,"COCc1cnc2[nH]cc(-c3cccc(C#N)c3)c2c1N1CCOCC1 [Example 84, 3-[5-(methoxymethyl)-4-(morpholin-4-yl)-1H-pyrrolo[2,3-b]pyridin-3-yl]benzonitrile]",63.4 nM
13,"N#Cc1cc(-c2c[nH]c3nccc(N4CCOCC4)c23)c[nH]1 [Example 86, 4-[4-(morpholin-4-yl)-1H-pyrrolo[2,3-b]pyridin-3-yl]-1H-pyrrole-2-carbonitrile]",2.75 nM
14,"N#Cc1cccc(-c2c[nH]c3nccc(-c4ccncc4)c23)c1 [Example 88, 3-[4-(pyridin-4-yl)-1H-pyrrolo[2,3-b]pyridin-3-yl]benzonitrile]",9.93 nM
15,"Cn1cc(-c2c[nH]c3nccc(-c4ccccc4)c23)cn1 [Example 89, 3-(1-methyl-1H-pyrazol-4-yl)-4-phenyl-1H-pyrrolo[2,3-b]pyridine]",13.7 nM
16,"N#Cc1cccc(-c2c[nH]c3nncc(N4CCOCC4)c23)c1 [Example 90, 3-[4-(morpholin-4-yl)-7H-pyrrolo[2,3-c]pyridazin-5-yl]benzonitrile]",42.2 nM

# The next lines start with the values.
row,EC50,SMILES
1,174 nM,"Cc1[nH]c2nccc(N3CCOCC3)c2c1-c1cc(F)cc(C#N)c1 [Example 56, 3-fluoro-5-[2-methyl-4-(morpholin-4-yl)-1H-pyrrolo[2,3-b]pyridin-3-yl]benzonitrile]"
2,91.9 nM,"Cn1cc(-c2c[nH]c3nccc(N4CCCC(O)C4)c23)cn1 (stereo not drawn) [Example 57, 1-[3-(1-methyl-1H-pyrazol-4-yl)-1H-pyrrolo[2,3-b]pyridin-4-yl]piperidin-3-ol]"
3,197 nM,"Cn1cc(-c2c[nH]c3nccc(N4CCCC(F)(F)C4)c23)cn1 [Example 59, 4-(3,3-difluoropiperidin-1-yl)-3-(1-methyl-1H-pyrazol-4-yl)-1H-pyrrolo[2,3-b]pyridine]"
4,140 nM,"Cn1cc(-c2c[nH]c3nccc(N4CCCC(CO)C4)c23)cn1 (stereo not drawn) [Example 60, {1-[3-(1-methyl-1H-pyrazol-4-yl)-1H-pyrrolo[2,3-b]pyridin-4-yl]piperidin-3-yl}methanol]"
5,185 nM,"CN(C)c1ccnc2[nH]cc(-c3cnn(C)c3)c12 [Example 62, N,N-dimethyl-3-(1-methyl-1H-pyrazol-4-yl)-1H-pyrrolo[2,3-b]pyridin-4-amine]"
6,195 nM,"Cn1cc(-c2c[nH]c3nccc(N4CCC(F)(F)C4)c23)cn1 [Example 64, 4-(3,3-difluoropyrrolidin-1-yl)-3-(1-methyl-1H-pyrazol-4-yl)-1H-pyrrolo[2,3-b]pyridine]"
7,7.17 nM,"N#Cc1cccc(-c2c[nH]c3nccc(C4=CCOCC4)c23)c1 [Example 65, 3-[4-(3,6-dihydro-2H-pyran-4-yl)-1H-pyrrolo[2,3-b]pyridin-3-yl]benzonitrile]"
8,22 nM,"COCC1CN(c2ccnc3[nH]cc(-c4cccc(C#N)c4)c23)CCO1 (stereo not drawn) [Example 67, 3-{4-[2-(methoxymethyl)morpholin-4-yl]-1H-pyrrolo[2,3-b]pyridin-3-yl}benzonitrile]"
9,30.5 nM,"c1cc(N2CCOCC2)c2c(-c3cn[nH]c3)c[nH]c2n1 [Example 68, 4-(morpholin-4-yl)-3-(1H-pyrazol-4-yl)-1H-pyrrolo[2,3-b]pyridine]"
10,150 nM,"N#Cc1cccc(-c2c[nH]c3nccc(N4CCCOCC4)c23)c1 [Example 69, 3-[4-(1,4-oxazepan-4-yl)-1H-pyrrolo[2,3-b]pyridin-3-yl]benzonitrile]"
11,85.3 nM,"N#Cc1cccc(-c2c[nH]c3nccc(N4CCC(O)CC4)c23)c1 [Example 70, 3-[4-(4-hydroxypiperidin-1-yl)-1H-pyrrolo[2,3-b]pyridin-3-yl]benzonitrile]"
12,95.8 nM,"COC1CCCN(c2ccnc3[nH]cc(-c4cccc(C#N)c4)c23)C1 (stereo not drawn) [Example 71, 3-[4-(3-methoxypiperidin-1-yl)-1H-pyrrolo[2,3-b]pyridin-3-yl]benzonitrile]"
13,39 nM,"N#Cc1cccc(-c2c[nH]c3nccc(N4CCC(F)CC4)c23)c1 [Example 74, 3-[4-(4-fluoropiperidin-1-yl)-1H-pyrrolo[2,3-b]pyridin-3-yl]benzonitrile]"
14,30.6 nM,"C[C@@H]1CN(c2ccnc3[nH]cc(-c4cccc(C#N)c4)c23)CCO1 [Example 76, 3-{4-[(2R)-2-methylmorpholin-4-yl]-1H-pyrrolo[2,3-b]pyridin-3-yl}benzonitrile]"
15,24 nM,"N#Cc1cccc(-c2c[nH]c3nccc(N4CC[C@H](F)C4)c23)c1 [Example 78, 3-{4-[(3S)-3-fluoropyrrolidin-1-yl]-1H-pyrrolo[2,3-b]pyridin-3-yl}benzonitrile]"
16,99.2 nM,"N#Cc1cccc(-c2c[nH]c3nccc(N4CCCC(F)(F)C4)c23)c1 [Example 79, 3-[4-(3,3-difluoropiperidin-1-yl)-1H-pyrrolo[2,3-b]pyridin-3-yl]benzonitrile]"
17,10.5 nM,"C[C@H]1CN(c2ccnc3[nH]cc(-c4cccc(C#N)c4)c23)CCO1 [Example 80, 3-{4-[(2S)-2-methylmorpholin-4-yl]-1H-pyrrolo[2,3-b]pyridin-3-yl}benzonitrile]"
18,11.1 nM,"O=c1cc(-c2c[nH]c3nccc(N4CCOCC4)c23)cc[nH]1 [Example 81, 4-[4-(morpholin-4-yl)-1H-pyrrolo[2,3-b]pyridin-3-yl]pyridin-2(1H)-one]"
19,12.3 nM,"COC(=O)c1cnc2[nH]cc(-c3cccc(C#N)c3)c2c1N1CCOCC1 [Example 82, methyl 3-(3-cyanophenyl)-4-(morpholin-4-yl)-1H-pyrrolo[2,3-b]pyridine-5-carboxylate]"
20,106 nM,"N#CCc1cnc2[nH]cc(-c3cccc(C#N)c3)c2c1N1CCOCC1 [Example 83, 3-[5-(cyanomethyl)-4-(morpholin-4-yl)-1H-pyrrolo[2,3-b]pyridin-3-yl]benzonitrile]"
21,21.7 nM,"Cn1cc(-c2c[nH]c3nccc(N4CCOCC4)c23)cc1C(N)=O [Example 85, 1-methyl-4-[4-(morpholin-4-yl)-1H-pyrrolo[2,3-b]pyridin-3-yl]-1H-pyrrole-2-carboxamide]"
22,5.46 nM,"Cc1[nH]c2nccc(N3CCOCC3)c2c1-c1cc(C#N)n(C)c1 [Example 87, 1-methyl-4-[2-methyl-4-(morpholin-4-yl)-1H-pyrrolo[2,3-b]pyridin-3-yl]-1H-pyrrole-2-carbonitrile]"
23,43.4 nM,"N#Cc1cccc(-c2c[nH]c3nccc(-c4cccc(C(=O)NC5CC5)c4)c23)c1 [Example 91, 3-[3-(3-cyanophenyl)-1H-pyrrolo[2,3-b]pyridin-4-yl]-N-cyclopropylbenzamide]"
